ChEMBL document CHEMBL3396954, “Synthesis and in vitro biological evaluation of dihydroartemisinyl-chalcone esters” (Eur J Med Chem, 2015)

Key:
[1] = Selectivity index, ratio of IC50 for chloroquine-resistant Plasmodium falciparum W2 to IC50 for human MCF7 cells
[2] = system: MCF7; assay: Selectivity index, ratio of IC50 for human WI38 cells to IC50 for human MCF7 cells; assay type: functional
[3] = system: Plasmodium falciparum; assay: Antimalarial activity against chloroquine-sensitive Plasmodium falciparum 3D7 assessed as inhibition of parasite proliferation after 96 hrs by SYBR Green I-based fluorescence method; assay type: functional, organism-based; conditions: 3D7, 96 h
[4] = Selectivity index, ratio of IC50 for chloroquine-resistant Plasmodium falciparum W2 to IC50 for human TK10 cells; set-up: species or system TK-10
[5] = system: UACC-62; assay: Selectivity index, ratio of IC50 for human WI38 cells to IC50 for human UACC62 cells; assay type: functional
[6] = Resistance index, ratio of IC50 for chloroquine-resistant Plasmodium falciparum W2 to IC50 for chloroquine-sensitive Plasmodium falciparum 3D7; assay type: functional
[7] = system: MCF7; assay: Anticancer activity against human MCF7 cells assessed as inhibition of cell growth after 24 hrs by SRB assay; assay type: functional, cell-based; conditions: MCF7, 24 h
[8] = Cytotoxicity against human WI38 cells assessed as inhibition of proliferation after 24 hrs by SRB assay; assay type: cell-based; conditions: WI-38, 24 h
[9] = system: WI-38; assay: Selectivity index, ratio of IC50 for human WI38 cells to IC50 for human TK10 cells; assay type: functional
[10] = system: TK-10; assay: Anticancer activity against human TK10 cells assessed as inhibition of cell growth after 24 hrs by SRB assay; assay type: functional, cell-based; conditions: TK-10, 24 h
[11] = Selectivity index, ratio of IC50 for human WI38 cells to IC50 for chloroquine-sensitive Plasmodium falciparum 3D7; assay type: toxicity, cell-based, WI-38; conditions: read-out: Ratio IC50
[12] = system: Plasmodium falciparum; assay: Antimalarial activity against chloroquine-resistant Plasmodium falciparum W2 assessed as inhibition of parasite proliferation after 96 hrs by SYBR Green I-based fluorescence method; assay type: functional, organism-based; conditions: W2, 96 h
[13] = Selectivity index, ratio of IC50 for chloroquine-resistant Plasmodium falciparum W2 to IC50 for human UACC62 cells; set-up: species or system UACC-62
[14] = Anticancer activity against human UACC62 cells assessed as inhibition of cell growth after 24 hrs by SRB assay; assay type: functional, cell-based; conditions: UACC-62, 24 h

Row | SMILES | Ratio IC50 [1] | Ratio IC50 [2] | IC50 [3] [µM] | Ratio IC50 [4] | Ratio IC50 [5] | Ratio IC50 [6] | IC50 [7] [µM] | IC50 [8] [µM] | Ratio IC50 [9] | IC50 [10] [µM] | selectivity ratio [11] | IC50 [12] [µM] | Ratio IC50 [13] | IC50 [14] [µM]
1 | C[C@@H]1CC[C@H]2[C@@H](C)C(OC(=O)c3ccc(/C=C/C(=O)c4ccccc4)cc3)O[C@@H]3O[C@]4(C)CC[C@@H]1[C@]32OO4 (stereo partly drawn) | >339 | >28 | 0.00973 | >786 | >19 | 1.1 | 3.59 | > 100 | >12 | 8.32 | > 10300 | 0.0106 | >505 | 5.35
2 | CC[C@H]1CN2CCc3cc(OC)c(OC)cc3[C@@H]2C[C@@H]1C[C@H]1NCCc2cc(OC)c(OC)cc21 [EMETINE] |  |  |  |  |  |  |  | 0.05 |  |  |  |  |  | 
3 | COc1ccc(C(=O)/C=C/c2ccc(C(=O)OC3O[C@@H]4O[C@]5(C)CC[C@H]6[C@H](C)CC[C@@H]([C@H]3C)[C@@]46OO5)cc2)c(OC)c1 (stereo partly drawn) | >500 | >100 | 0.00302 | >10799 | >23 | 0.7 | 1.02 | > 100 | >5 | 22 | > 33100 | 0.00204 | >2123 | 4.33
4 | O=C(O)c1ccc(/C=C/C(=O)c2ccc(Cl)c(Cl)c2Cl)cc1 | 0.1 | 2.3 | 0.041 | 0.4 | 1 | 1.5 | 8.73 | 20.4 | 0.9 | 23.6 | 0.5 | 0.0622 | 0.3 | 19.7
5 | COc1ccc(C(=O)/C=C/c2ccc(C(=O)O)cc2)cc1[N+](=O)[O-] | 0.3 | 3 | 0.0407 | 0.7 | 2.2 | 0.8 | 9.52 | 29 | 1.4 | 21.1 | 0.7 | 0.0312 | 0.4 | 13.4
6 | O=C(O)c1ccc(/C=C/C(=O)c2ccccc2)cc1 | >0.4 | >8 | 0.0295 | >1 | >7 | 1 | 11.9 | > 100 | >3 | 29.8 | > 3.4 | 0.0308 | >0.5 | 13.9
7 | COc1ccc(C(=O)/C=C/c2ccc(C(=O)O)cc2)cc1OC | 0.8 | 7.6 | 0.0108 | 1.7 | 8.6 | 1 | 8.88 | 67.4 | 3.6 | 18.9 | 6.2 | 0.0108 | 0.7 | 7.87
8 | COc1ccc(C(=O)/C=C/c2ccc(C(=O)OC3O[C@@H]4O[C@]5(C)CC[C@H]6[C@H](C)CC[C@@H]([C@H]3C)[C@@]46OO5)cc2)cc1OC (stereo partly drawn) | >2329 | >29 | 0.00336 | >4105 | >19 | 0.4 | 3.4 | > 100 | >17 | 5.99 | > 29800 | 0.00146 | >3556 | 5.19
9 | CCN(CC)CCCC(C)Nc1ccnc2cc(Cl)ccc12 (stereo not drawn) [CHLOROQUINE] |  |  |  |  |  |  |  | 3.63 |  |  |  |  |  | 
10 | Cc1ccc(C(=O)/C=C/c2ccc(C(=O)O)cc2)o1 | 1.1 | 1.6 | 0.0183 | 5.2 | 0.6 | 0.9 | 19.7 | 32 | 0.4 | 90 | 1.7 | 0.0173 | 3.3 | 58
11 | C[C@H]1[C@@H](O)O[C@@H]2O[C@@]3(C)CC[C@H]4[C@H](C)CC[C@@H]1[C@@]24OO3 [ARTENIMOL] |  |  | 0.00145 |  |  | 0.9 |  |  |  |  |  | 0.00131 |  | 
12 | COc1ccc(C(=O)/C=C/c2ccc(C(=O)O)cc2)c(OC)c1 | 1.9 | 1.7 | 0.0148 | 4 | 7.2 | 1 | 28.1 | 48.6 | 0.8 | 59.6 | 3.3 | 0.0148 | 0.5 | 6.75
13 | C[C@H]1[C@@H](OC(=O)c2ccc(/C=C/C(=O)c3ccc(Cl)c(Cl)c3Cl)cc2)O[C@@H]2O[C@]3(C)CC[C@H]4[C@H](C)CC[C@@H]1[C@@]24OO3 | 2549.7 | 4.2 | 0.0107 | 9198.6 | 2.2 | 0.5 | 14.9 | 61.9 | 1.2 | 53.7 | 5800 | 0.00584 | 4873.3 | 28.5
14 | C=C1C(=O)O[C@@H]2C3O[C@]3(C)CC/C=C(\C)CC[C@@H]12 (stereo partly drawn) |  |  |  |  |  |  | 2.4 |  |  | 3.71 |  |  |  | 9.71
15 | C[C@H]1[C@H](OC(=O)CCC(=O)O)O[C@@H]2O[C@@]3(C)CC[C@H]4[C@H](C)CC[C@@H]1[C@@]24OO3 [ARTESUNATE] |  |  | 0.004 |  |  |  |  |  |  |  |  | 0.00571 |  | 
16 | Cc1ccc(C(=O)/C=C/c2ccc(C(=O)O[C@@H]3O[C@@H]4O[C@]5(C)CC[C@H]6[C@H](C)CC[C@@H]([C@H]3C)[C@@]46OO5)cc2)o1 | 2325.9 | 21.1 | 0.00198 | 2451.7 | 21.9 | 0.7 | 3.42 | 72.2 | 20 | 3.6 | 36500 | 0.00147 | 2240.1 | 3.29
17 | COc1ccc(C(=O)/C=C/c2ccc(C(=O)OC3O[C@@H]4O[C@]5(C)CC[C@H]6[C@H](C)CC[C@@H]([C@H]3C)[C@@]46OO5)cc2)cc1[N+](=O)[O-] (stereo partly drawn) | >512 | >34 | 0.00587 | >3010 | >13 | 1 | 2.9 | > 100 | >6 | 17 | > 17000 | 0.00566 | >1340 | 7.58
